Measured values taken from US20080145465A1, “Sesquiterpene lactone extract from artemisia leucodes for reducing inflammation and down-regulating pro-inflammatory gene expression” (priority 2006, published 2008).
Several values for one entry are separate records, joined by “and”; a condition that tells them apart may be missing. Equal entries are not always repeated. Entries after “also recorded” stand apart in the source; their conditions may differ. Where two headings read alike, the source gives them in different places.

Assays:
[1] = test system: nitric oxide (NO) production from RAW macrophages; assay: Griess assay for NO production by LPS-stimulated RAW macrophages; type: cell-based, murine; settings: LPS 1 μg/mL, 24 hours, n = 8, % of control
[2] = test system: nitric oxide (NO) production from RAW macrophages; assay: as above; type: cell-based, murine; settings: for NO production (relative to control), mean ± SE: LPS 1 μg/mL, 24 hours, n = 8, % of control; for IC50: read-out: IC50, inhibition of NO production
Description: RAW 264.7 murine monocyte/macrophages (ATCC TIB-71) were maintained in Dulbecco's Modified Eagle Medium (D-MEM, Invitrogen Corp., Carlsbad, Calif.) supplemented with 10% fetal bovine serum (FBS, Invitrogen Corp., Carlsbad, Calif.) and 1% streptomycin and were kept in a humidified 37° C. incubator with 5% CO2. Cells were subcultured by scraping when plates reached 90% confluency with a 1:5 ratio.
Down-regulation of various pro-inflammatory genes including iNOS, IL1β, and TNF-α can reduce nitric oxide production by macrophages. In order to confirm that changes in pro-inflammatory gene expression were affecting cellular function, the Griess assay was performed to indirectly measure nitric oxide production by LPS-induced macrophages by measuring nitrite (Misko et al., 1993). For the assay, RAW cells were plated in a 24-well plate at a minimum density of 0.4×10^6 cells/well and grown for 24 hours. A stock solution of AL-1 was created by completely dissolving dry extract as in Example 1 in 95% ethanol. Cells were stimulated with 1 μg/mL LPS with simultaneous addition of AL-1 (10-100 μg/mL), aspirin (10 mM), or vehicle control (0.5% ethanol), maintaining a final concentration of 0.5% ethanol for every treatment. After 24 hours, conditioned media (50 μl) was removed and immediately mixed with 100 μl of Griess reagent (10% sulfanilamide, 1% naphthalene-ethylenediamine dihydrochloride in 5% H3PO4, all from Sigma, St. Louis, Mo.). After incubation for 15 minutes at room temperature, the samples were read at 550 nm using a microplate spectrophotometer (Molecular Devices, Sunnyvale, Calif.). Data for each treatment were normalized based on results from an MTS cell proliferation assay.
A CellTiter 96 assay kit (Promega Corp. Madison, Wis.) was used to determine the relative number of viable cells remaining after incubation with treatments. For the assay, old media containing treatments or controls was removed from the 96-well plates and replaced with 100 μL fresh media per well. Next, 20 μL MTS/PMS reagent ([3-(4,5-dimethylthiazol-2-yl)-5-(3-carboxymethoxyphenyl)-2-(4-sulfophenyl)-2H-tetrazolium plus phenazine methosulfate) was added to each well followed by a three hour incubation period at 37° C., 5% CO2. Plates were read using a microplate reader (Molecular Devices, Sunnyvale, Calif.) at 490 nm. A blank row corrected for background noise and data was expressed as a percent of the LPS control. Each treatment was tested on three different plates with 8 wells on each plate for a total of 24 wells.

[3] = target: T1, COX-1 (Ovis aries, UniProt P05979); assay: Colorimetric COX inhibitor screening assay, COX-1; type: biochemical, ovine; settings: data not shown
T1 construct: purchased Cayman Chemical Company
T1 sequence (P05979 25-600): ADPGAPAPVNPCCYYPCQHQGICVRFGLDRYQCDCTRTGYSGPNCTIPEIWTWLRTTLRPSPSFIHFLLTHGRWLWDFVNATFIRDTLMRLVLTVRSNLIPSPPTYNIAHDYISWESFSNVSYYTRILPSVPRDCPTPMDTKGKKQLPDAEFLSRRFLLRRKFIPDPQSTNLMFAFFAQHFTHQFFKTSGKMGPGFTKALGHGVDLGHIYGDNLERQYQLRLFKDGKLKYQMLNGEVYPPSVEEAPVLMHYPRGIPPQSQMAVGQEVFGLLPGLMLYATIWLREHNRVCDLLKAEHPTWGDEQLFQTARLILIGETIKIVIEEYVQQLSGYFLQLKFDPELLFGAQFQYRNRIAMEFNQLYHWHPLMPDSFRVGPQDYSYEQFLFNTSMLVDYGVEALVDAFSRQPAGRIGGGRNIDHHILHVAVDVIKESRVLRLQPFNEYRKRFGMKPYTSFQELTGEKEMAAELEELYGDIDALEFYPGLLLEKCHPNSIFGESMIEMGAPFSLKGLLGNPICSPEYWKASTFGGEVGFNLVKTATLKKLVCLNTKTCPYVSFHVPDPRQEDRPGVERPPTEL
Description: An ovine COX inhibitor screening assay (Cayman Chemical Company, Ann Arbor, Mich.) was used to measure inhibition of purified COX-1 and COX-2. This assay measures the peroxidase component of cyclooxygenases colorimetrically by monitoring the appearance of oxidized N,N,N′,N′-tetramethyl-p-phenylenediamine (TMPD) at 590 nm. Tablets of Vioxx (rofecoxib; Merck & Co., Inc., Whitehouse Station, N.J.) were ground and dissolved in methanol (1 mg/mL) to use as a positive control. AL-1, leukomisin, and austricin were also dissolved in methanol at 1 mg/mL. The assay was performed following manufacturer instructions. Vioxx, vehicle (100% initial activity), or treatments were added to a 96-well plate along with 180 μL assay mixture provided by the manufacturer containing 150 μL assay buffer, 10 μL heme, and 10 μL enzyme (COX-1 or COX-2). A background correction row received no enzyme and 10 μL additional assay buffer. After 5 min incubation at room temp, 20 μL of a colorimetric substrate solution containing TMPD and 20 μL arachadonic acid diluted in assay buffer were added to the plate. The plate was incubated for 5 min and the absorbance was read at 590 nm using a microplate reader (Molecular Devices, Sunnyvale, Calif.). To calculate percent inhibition, average absorbance was calculated for each sample (n=3). The background blank well absorbance was subtracted from each sample. […]

Row | SMILES | NO production (relative to control), mean ± SE ([1]; 2 μg/ml) [%] | NO production (relative to control), mean ± SE ([1]; 4 μg/ml) [%] | NO production (relative to control), mean ± SE ([2]; 20 μg/ml) [%] | NO production (relative to control), mean ± SE ([2]; 50 μg/ml) [%] | NO production (relative to control), mean ± SE ([2]; 100 μg/ml) [%] | IC50 ([2]; Mus musculus, Macrophage) | COX-1 enzyme inhibition (in words) [3] | IC50, inhibition of NO production ([2]; RAW macrophages elicited with LPS) [µg/mL] | IC50 ([2]; RAW macrophages elicited with LPS, molar value in brackets) [µM]
1 | CC1=CC(=O)C2=C(C)C[C@H](O)[C@@H]3[C@H](OC(=O)[C@H]3C)[C@@H]12 (single isomer, unassigned) [austricin] | 100 ± 1 | 100 ± 1 | 89 ± 1 | 89 ± 1 | 84 ± 2 | 440 µg/mL and 1.68 mM | did not inhibit COX-1; also recorded: did not significantly inhibit | – | –
2 | CC1=CC(=O)C2=C(C)CC[C@@H]3[C@H](OC(=O)[C@H]3C)[C@@H]12 [leukomisin] | 100 ± 2 | 98 ± 1 | 82 ± 4 | 72 ± 1 | 64 ± 2 | – | did not inhibit COX-1 activity; also recorded: did not significantly inhibit | 160 | 650
